Measured values taken from patent US10065990B2, “Cyclic peptide compound, and preparation method, pharmaceutical composition and use thereof” (HANGZHOU GUANYU BIO-MEDICAL CO., LTD, priority 2013, dated 2018).
Where two headings read alike, the source gives them in different places.

Tests used:
[1] = target: HDAC1 (Homo sapiens, UniProt Q13547); assay: HDAC biochemical activity measurement (fluorescent substrate deacetylation);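 further: fluorogenic acetyl-lysine substrate (20 µM) deacetylated by HDAC1, then developer releases fluorophore read at 360 nm excitation and 460 nm emission, inhibitor incubated 30 min at 37 °C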
Experimental: (§2) The chemical activity of the compound is determined according to the degree of deacetylation inhibition of the HDAC enzyme. This experiment measured the degree of deacetylation related to tumor proliferation and metastasis of HDAC1, HDAC2, HDAC3, HDAC8, HDAC11 five subtypes HDAC enzymes. After the substrate containing an acetylated lysine side chain and HDAC enzyme are labeled with a fluorescent label, the fluorescent substrate is de acetyl. The fluorescent labeled substrate is cleaved by the enzyme, and the fluorescent substance is released, which generates 460 nm emission light under the excitation of 360 nm light.
(§3) HDAC substrate was diluted with reaction buffer to 200M (reaction concentration of 20M), the HDAC enzyme was diluted to the appropriate concentration, then added different concentrations of the test compounds and acted at 37° C. 30 minutes, and then added the same volume of 2-times concentration substrate developing solution (developer), incubated at room temperature for 15 minutes.

[2] = target: HDAC2 (Homo sapiens, UniProt Q92769); assay: as above; conditions: 37° C. 30 minutes;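 further: HDAC2 enzyme with an acetyl-lysine fluorescent substrate, then developer added, fluorescence read at excitation 360 nm and emission 460 nm, inhibition measured across several compound concentrations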
Experimental: as §2, §3

[3] = target: T1, HDAC7 (Homo sapiens, UniProt Q8WUI4); assay: as above; conditions: HDAC7; 37° C. 30 minutes;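 further: fluorogenic deacetylation assay using acetyl-lysine substrate at 20 µM, enzyme and compound incubated 30 min at 37 °C, then developer added, fluorescence read at 360/460 nm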
T1 sequence (Q8WUI4 1-952): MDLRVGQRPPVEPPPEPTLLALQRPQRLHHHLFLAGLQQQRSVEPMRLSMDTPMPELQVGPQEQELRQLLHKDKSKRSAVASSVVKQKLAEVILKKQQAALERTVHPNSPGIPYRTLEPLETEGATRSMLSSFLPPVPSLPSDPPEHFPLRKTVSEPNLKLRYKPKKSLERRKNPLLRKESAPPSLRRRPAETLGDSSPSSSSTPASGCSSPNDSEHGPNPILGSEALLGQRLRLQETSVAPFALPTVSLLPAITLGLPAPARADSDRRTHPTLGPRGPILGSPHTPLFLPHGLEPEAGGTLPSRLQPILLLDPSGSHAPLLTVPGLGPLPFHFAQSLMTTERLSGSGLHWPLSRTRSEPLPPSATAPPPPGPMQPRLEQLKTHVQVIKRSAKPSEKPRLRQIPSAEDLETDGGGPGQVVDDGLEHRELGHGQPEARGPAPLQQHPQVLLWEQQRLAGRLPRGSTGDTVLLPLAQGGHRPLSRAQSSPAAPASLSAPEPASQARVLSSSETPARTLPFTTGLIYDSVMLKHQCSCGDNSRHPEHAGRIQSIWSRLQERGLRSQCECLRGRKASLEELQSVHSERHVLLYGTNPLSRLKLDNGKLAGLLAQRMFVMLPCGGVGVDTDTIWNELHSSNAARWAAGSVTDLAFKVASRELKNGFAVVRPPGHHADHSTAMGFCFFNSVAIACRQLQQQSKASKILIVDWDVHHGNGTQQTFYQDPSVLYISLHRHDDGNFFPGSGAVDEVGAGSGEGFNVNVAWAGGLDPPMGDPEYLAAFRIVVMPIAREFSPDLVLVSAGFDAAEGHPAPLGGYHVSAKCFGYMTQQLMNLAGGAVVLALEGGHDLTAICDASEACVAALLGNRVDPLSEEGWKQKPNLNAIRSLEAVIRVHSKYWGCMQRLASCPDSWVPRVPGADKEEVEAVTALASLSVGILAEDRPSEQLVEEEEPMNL
Experimental: as §2
HDAC substrate was diluted with reaction buffer to 200M (reaction concentration of 20M), the HDAC enzyme was diluted to the appropriate concentration, then added different concentrations of the test compounds and acted at 37° C. 30 minutes, and then added the same volume of 2-times concentration substrate developing solution (developer), incubated at room temperature for 15 minutes. Finally, the last reading measured with a microplate plate reader, excitation light was 360 nm, the emitted light was 460 nm, data processing software was Prime 4, and the results are shown in Table 1.

[4] = tested on: A549 (human lung cancer cells); assay: MTT cancer cell growth inhibition; type: cell-based; conditions: MTT
Method in brief: (§1)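 GI50 values come from MTT viability: after 72 h compound exposure (final 10^−5–10^−10 M, three wells each) of cells plated overnight at 1500/well in 10% FBS medium, MTT was given for 4 h. The DMSO-solubilised formazan was then measured at 570 nm.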

[5] = tested on: BGC-823 (human gastric cancer cells); assay: MTT cancer cell growth inhibition; type: cell-based; conditions: MTT
Method in brief: as §1

[6] = tested on: Bel-7402 (human hepatoma cells); assay: MTT cancer cell growth inhibition; type: cell-based; conditions: MTT, 72 hours incubation, Bel-7402 cells, read-out: GI50 Bel-7402
Method in brief: as §1

[7] = tested on: DU145 (human prostate cancer cells); assay: MTT cancer cell growth inhibition; type: cell-based; conditions: MTT
Method in brief: as §1

[8] = tested on: HT1080 (human fibrosarcoma cells); assay: MTT cancer cell growth inhibition; type: cell-based; conditions: MTT
Method in brief: as §1

[9] = tested on: Hela (human cervical cancer cells); assay: MTT cancer cell growth inhibition; type: cell-based; conditions: MTT
Method in brief: as §1

[10] = tested on: Huh-7 (human hepatoma cells); assay: MTT cancer cell growth inhibition; type: cell-based; conditions: MTT, 72 hours incubation, Huh-7 cells, read-out: GI50 Huh-7
Method in brief: as §1

[11] = tested on: KBM5-T315I (human chronic myelogenous leukemia); assay: MTT cancer cell growth inhibition; type: cell-based; conditions: MTT, 72 hours incubation, KBM5-T315I cells, read-out: GI50 KBM5-T315I
Method in brief: as §1

[12] = tested on: MCF-7 (human breast cancer cells); assay: MTT cancer cell growth inhibition; type: cell-based
Method in brief: as §1

[13] = tested on: MDA-MB-231 (breast cancer cells); assay: MTT cancer cell growth inhibition; type: cell-based
Method in brief: as §1

[14] = tested on: MOLT-4 (human acute lymphoblastic leukemia cells); assay: MTT cancer cell growth inhibition; type: cell-based; conditions: MTT
Method in brief: as §1

[15] = tested on: SGC-7901 (human gastric cancer cells); assay: MTT cancer cell growth inhibition; type: cell-based; conditions: MTT, 72 hours incubation, SGC-7901 cells, read-out: GI50 SGC-7901
Method in brief: as §1

[16] = tested on: U937 (human leukemia cells); assay: MTT cancer cell growth inhibition; type: cell-based; conditions: MTT
Method in brief: as §1

[17] = HDAC1, 37° C. 30 minutes, read-out: IC50 HDAC1
[18] = Homo sapiens, A549, 72 h, A549 cells, 72 hours incubation, read-out: GI50 A54
[19] = Homo sapiens, BGC-823, 72 h, BGC-823 cells, 72 hours incubation, read-out: GI50 BG
[20] = Homo sapiens, DU-145, 72 h, DU145 cells, 72 hours incubation, read-out: GI50 Du1
[21] = Homo sapiens, HT-1080, 72 h, HT1080 cells, 72 hours incubation, read-out: GI50 HT1
[22] = Homo sapiens, HeLa, 72 h, Hela cells, 72 hours incubation, read-out: GI50 Hela
[23] = Homo sapiens, MCF7, 72 h, MCF-7 cells, 72 hours incubation, read-out: GI50 MCF
[24] = Homo sapiens, MDA-MB-231, 72 h, read-out: GI50 MDA-MB-231, MTT, 72 hours incubation, MDA-MB-231 cells
[25] = Homo sapiens, MOLT-4, 72 h, MOLT-4 cells, 72 hours incubation, read-out: GI50 Mol
[26] = Homo sapiens, U-937, 72 h, U937 cells, 72 hours incubation, read-out: GI50 U93
[27] = Table 2, read-out: IC50 HDAC1, a (compounds of the present invention)
[28] = Homo sapiens, A549, 72 h, 72 hours, present invention, read-out: GI50 A549, a
[29] = Homo sapiens, BGC-823, 72 h, 72 hours, present invention, read-out: GI50 BGC823, a
[30] = Homo sapiens, DU-145, 72 h, 72 hours, present invention, read-out: GI50 Du145, a
[31] = Homo sapiens, HT-1080, 72 h, 72 hours, present invention, read-out: GI50 HT1080, a
[32] = Homo sapiens, HeLa, 72 h, 72 hours, present invention, read-out: GI50 Hela, a
[33] = Homo sapiens, MCF7, 72 h, 72 hours, present invention, read-out: GI50 MCF7, a
[34] = Homo sapiens, MOLT-4, 72 h, 72 hours, present invention, read-out: GI50 Molt-4, a
[35] = Homo sapiens, U-937, 72 h, 72 hours, present invention, read-out: GI50 U937, a

Chain of HDAC2 (Q92769 whole entry, species assumed): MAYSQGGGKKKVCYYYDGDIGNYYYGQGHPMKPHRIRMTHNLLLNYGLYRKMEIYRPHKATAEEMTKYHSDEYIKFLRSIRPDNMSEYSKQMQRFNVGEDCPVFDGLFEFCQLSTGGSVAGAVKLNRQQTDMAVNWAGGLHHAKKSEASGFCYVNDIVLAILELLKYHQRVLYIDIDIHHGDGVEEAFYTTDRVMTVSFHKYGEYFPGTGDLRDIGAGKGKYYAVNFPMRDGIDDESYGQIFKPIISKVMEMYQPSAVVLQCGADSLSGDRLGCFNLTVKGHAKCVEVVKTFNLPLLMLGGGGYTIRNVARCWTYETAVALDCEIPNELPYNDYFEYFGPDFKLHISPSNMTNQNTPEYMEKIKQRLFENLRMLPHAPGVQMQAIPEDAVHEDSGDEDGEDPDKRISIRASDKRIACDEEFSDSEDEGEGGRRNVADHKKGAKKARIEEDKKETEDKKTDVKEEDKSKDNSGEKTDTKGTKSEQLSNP
Chain of HDAC1 (Q13547 whole entry, species assumed): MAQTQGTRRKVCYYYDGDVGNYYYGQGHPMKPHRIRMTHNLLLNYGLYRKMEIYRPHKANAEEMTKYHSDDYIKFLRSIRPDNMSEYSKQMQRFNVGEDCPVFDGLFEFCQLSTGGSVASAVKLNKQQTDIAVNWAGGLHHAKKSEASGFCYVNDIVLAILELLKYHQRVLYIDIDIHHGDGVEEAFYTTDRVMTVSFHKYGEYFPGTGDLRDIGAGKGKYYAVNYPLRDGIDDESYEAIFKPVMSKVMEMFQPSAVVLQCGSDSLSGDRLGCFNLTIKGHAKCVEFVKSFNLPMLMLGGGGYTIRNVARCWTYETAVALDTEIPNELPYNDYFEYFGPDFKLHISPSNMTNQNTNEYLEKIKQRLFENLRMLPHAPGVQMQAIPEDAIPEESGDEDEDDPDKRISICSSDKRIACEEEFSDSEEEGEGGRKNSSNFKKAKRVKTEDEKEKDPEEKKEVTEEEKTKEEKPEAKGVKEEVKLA

Structure (SMILES) | IC50 [1, 17] [nM] | IC50 [2] [nM] | IC50 HDAC7 [3] | GI50 [4, 18] [nM] | GI50 [5, 19] [nM] | GI50 ([6]; Homo sapiens, Bel-7402, 72 h) [nM] | GI50 [7, 20] [nM] | GI50 [8, 21] [nM] | GI50 [9, 22] [nM] | GI50 ([10]; Homo sapiens, Huh-7, 72 h) [nM] | GI50 ([11]; Homo sapiens, 72 h) [nM] | GI50 [12, 23] [nM] | GI50 [13, 24] [nM] | GI50 [14, 25] [nM] | GI50 ([15]; Homo sapiens, SGC-7901, 72 h) [nM] | GI50 [16, 26] [nM] | IC50 [1, 27] [nM] | GI50 [4, 28] [nM] | GI50 [5, 29] [nM] | GI50 [7, 30] [nM] | also measured
C/C=C1\NC(=O)c2cc(SC)cc(n2)CNC(=O)C[C@@H](/C=C/CCSC(C)=O)OC(=O)[C@H](C(C)C)NC1=O [Compound 224] | 184 | 335 | no activity | – | – | – | – | – | – | – | – | – | – | – | – | – | – | – | – | – | GI50 ([4]; A549 cells, 72 hours incubation, read-out: GI50 A54): 50 nM; GI50 ([5]; BGC-823 cells, 72 hours incubation, read-out: GI50 BG): 30 nM; GI50 [6]: 23 nM; GI50 ([7]; DU145 cells, 72 hours incubation, read-out: GI50 Du1): 50 nM; GI50 ([8]; HT1080 cells, 72 hours incubation, read-out: GI50 HT1): 90 nM; GI50 ([9]; Hela cells, 72 hours incubation, read-out: GI50 Hela): 60 nM; GI50 [10]: 36 nM; GI50 [11]: 63 nM; GI50 ([12]; MCF-7 cells, 72 hours incubation, read-out: GI50 MCF): 40 nM; GI50 ([13]; read-out: GI50 MDA-MB-231, MTT, 72 hours incubation, MDA-MB-231 cells): 62 nM; GI50 ([14]; MOLT-4 cells, 72 hours incubation, read-out: GI50 Mol): 30 nM; GI50 [15]: 93 nM; GI50 ([16]; U937 cells, 72 hours incubation, read-out: GI50 U93): 30 nM
C/C=C1\NC(=O)c2nc(ccc2SC)CNC(=O)C[C@@H](/C=C/CCS)OC(=O)[C@H](C)NC1=O [Compound 232] | 66 | 93 | no activity | 30 | 50 | 35 | 50 | 20 | 30 | 21 | 43 | 80 | 23 | 50 | 63 | 90 | – | – | – | – | –
C/C=C1\NC(=O)c2cccc(n2)CNC(=O)C[C@@H](/C=C/CCSC(=O)CCCCCCC)OC(=O)CNC1=O [Compound 235] | 8 | 19 | no activity | 30 | 40 | 91 | 30 | 20 | 40 | 38 | 92 | 50 | 45 | 70 | 42 | 60 | < 10 | 34 | 43 | 3 | GI50 [8, 31]: 24 nM; GI50 [9, 32]: 47 nM; GI50 [12, 33]: 56 nM; GI50 [14, 34]: 7 nM; GI50 [16, 35]: 6 nM
C/C=C1\NC(=O)c2cccc(n2)CNC(=O)C[C@@H](/C=C/CCSC(=O)CCCCCCC)OC(=O)[C@@H](C)NC1=O [Compound 236] | 43 | 38 | no activity | 510 | 90 | 75 | 90 | 190 | 810 | 67 | 53 | 760 | 17 | 860 | 48 | 70 | < 50 | 510 | 93 | 91 | GI50 [8, 31]: 197 nM; GI50 [9, 32]: 810 nM; GI50 [12, 33]: 760 nM; GI50 [14, 34]: 860 nM; GI50 [16, 35]: 77 nM
